Data: PMC9457815 (Molecules, 2022)
Like-named read-outs stand apart in the source and are kept apart here.

Columns and labels:
BuChE = biological target: T1, BuChE (Equus caballus, UniProt P81908); assay: biochemical; parameters: species or system equine; conditions: for IC50 BuChE / IC50: nid = no inhibition detected at 1 mM
T1 construct: purchased Sigma-Aldrich
Procedure: (§1) Pharmacological properties specific to AD were tested first on AChEs (electric eel) according to the kit (ab138871, Abcam) that provides a colorimetric measure of enzyme activity and inhibition. Briefly, the reaction was performed in a final volume of 100 μL in 96-well microplates. […] For this, DMSO-dissolved test compounds were added to a final concentration of 1 mM (1% DMSO) in duplicates. Next, a 5 μL reaction mixture containing equal amounts of acetylthiocholine (20X) and DTNB (20X) was added to each well. Ultimately, the enzyme solution was added to a final concentration of 0.25 U/mL and the absorbance was measured at 412 nm in kinetic mode for 10 min using a microplate reader (Synergy H1, Biotek, Dorval, QC, Canada). The same procedure was utilized for the BuChE (equine, Sigma-Aldrich) activity test, except that the enzyme concentration was 2 U/mL per reaction. DTNB (Bis(3-carboxy-4-nitrophenyl) disulfide, Ellman’s Reagent), acetylthiocholine iodide, and butyrylthiocholine iodide were purchased from Sigma-Aldrich (Oakville, ON, Canada). […] Experiments were performed at least twice. Inhibition was calculated as follows:I = 100 × (1 − Δi/Δe) where Δi is the difference in the absorbance between two time points in the presence of the inhibitor, and Δe is the difference in the absorbance using two time points in presence of DMSO or an appropriate solvent.

DENVGFP = assay: Antiviral assay, propagative DENVGFP vector in Huh7 cells, flow cytometry; assay type: cell-based, dengue virus (serotype 2); conditions: Dengue virus, Huh-7, 72 h, read-out: EC50 DENV
Procedure: (§2) The plasmid used to obtain the DENVGFP vector (pFK-DVs-G2A) was provided by Ralf Bartenschlager (Heidelberg University, Heidelberg, Germany) and Laurent Chatel-Chaix (Institut National de la Recherche Scientifique, Laval, QC, Canada). The 2 plasmids used to obtain the HIV-1GFP vector were PMD2.G and pNL4-3-GFPΔEnvΔNef. For DENVGFP, viral titer was measured using a plaque assay in Vero cells, as described in [53]. For HIV-1GFP, the viral titer was obtained by measuring the infectivity of serially diluted vectors in CRFK cells, as described in [54].
(§3) Briefly, 7.5 × 10^3 Huh7 cells/well or 2 × 10^4 THP-1 cells/well were plated in 96-well plates at 37 °C for 24 h. […] Each dilution was added to the cell plates to obtain final concentrations of 1.56 µM to 200 µM for alkaloids and matched concentrations of DMSO, and 0.05 µM to 6.4 µM for lycorine or 0.078 µM to 10 µM for raltegravir. Lycorine and raltegravir were used as DENV and HIV-1 inhibitor controls, respectively. DENVGFP and HIV-1GFP were then added at multiplicities of infection (MOIs) of 0.025 and 0.1, respectively. Plates were placed in an incubator at 37 °C and 5% CO2 for 72 h. Afterward, the cells were fixed in 3.7% formaldehyde and the percentage of infection was measured using flow cytometry with an FC500 MPL cytometer (Beckman Coulter, Inc., Brea, CA, USA). Data analysis was performed using Flowjo software (BD, FlowJo LLC, Ashland, OR, USA). All experiments were performed at least twice. EC50 values were calculated using QuestGraph IC50 calculator software (MLA Quest Graph™ IC50 Calculator. AAT Bioquest, Inc. https://www.aatbio.com/tools/ic50-calculator (accessed on 1 July 2022)).

HIV-1GFP = assay: microbe, parasite or virus in culture; assay type: cell-based, human immunodeficiency virus (HIV)-1; conditions: for EC50: Human immunodeficiency virus 1, THP-1, 72 h, read-out: EC50 HIV-1; for inhibition at 200 µM: Human immunodeficiency virus 1, THP-1, read-out: inhibition of HIV-1 infection
Procedure: as §2, §3

[1] = Cytotoxicity assay (Cell-Titer GLO, cellular ATP levels) on Huh7 cells; assay type: cell-based, human; conditions: human; Huh7 cells, 72 h, ATP levels
Procedure: (§4) Briefly, 7.5 × 10^3 Huh7 cells/well or 2 × 10^4 THP-1 cells/well were plated in black 96-well plates and incubated at 37 °C for 24 h. […] Each dilution was added to the cell plates to obtain final concentrations of 6.25 µM to 200 µM for alkaloids and DMSO, and 0.39 µM to 50 µM for lycorine. […] The plates were then incubated at 37 °C and 5% CO2 for 72 h. Cell-Titer GLO reagent was added to the plates previously equilibrated to room temperature. The plates were then mixed on an orbital shaker for 2 min and incubated for 10 min at room temperature. The luminescence signal was measured with a microplate spectrophotometer (Synergy H1, Biotek, Dorval, QC, Canada). Viability percentages were obtained by calculating the ratio of the signal corresponding to each alkaloid concentration to the signal of the equimolar DMSO control. All experiments were performed at least twice. Median cytotoxic concentrations (CC50) were calculated using QuestGraph IC50 calculator software (MLA Quest Graph™ IC50 Calculator, AAT Bioquest, Inc., Sunnyvale, CA, USA).

Huh7 cells = assay: as above; assay type: cell-based, human; conditions: for cell death, Huh7 cells: 200 µM; for cytotoxicity to Huh7 cells: tested concentrations (lycorine: below 50 µM)
Procedure: as §4

AChE = biological target: T2, AChE (Electrophorus electricus, UniProt O42275); assay: biochemical; assay type: biochemical, electric eel; conditions: substrate ATCh; nid = no inhibition detected at 1 mM
T2 construct: purchased Abcam ab138871
T2 sequence (O42275 24-633): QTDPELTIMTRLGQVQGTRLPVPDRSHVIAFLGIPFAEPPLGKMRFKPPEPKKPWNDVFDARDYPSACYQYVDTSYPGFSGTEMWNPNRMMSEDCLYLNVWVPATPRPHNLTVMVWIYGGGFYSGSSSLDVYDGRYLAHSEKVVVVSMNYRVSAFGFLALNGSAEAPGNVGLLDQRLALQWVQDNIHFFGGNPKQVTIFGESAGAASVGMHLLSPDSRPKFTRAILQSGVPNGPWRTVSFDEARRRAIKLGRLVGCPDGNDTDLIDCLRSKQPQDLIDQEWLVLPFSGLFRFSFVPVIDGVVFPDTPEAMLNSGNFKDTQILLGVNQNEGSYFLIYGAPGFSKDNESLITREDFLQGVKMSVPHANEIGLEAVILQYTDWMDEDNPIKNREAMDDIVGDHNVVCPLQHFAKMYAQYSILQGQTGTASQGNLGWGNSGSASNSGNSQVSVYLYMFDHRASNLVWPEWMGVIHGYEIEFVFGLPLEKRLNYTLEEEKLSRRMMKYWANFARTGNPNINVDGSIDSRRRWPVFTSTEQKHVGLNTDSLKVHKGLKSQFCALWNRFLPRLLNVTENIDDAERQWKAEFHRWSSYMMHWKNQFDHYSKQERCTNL
Procedure: as §1

THP-1 cells = assay: Cytotoxicity assay (Cell-Titer GLO, cellular ATP levels) on THP-1 cells; assay type: cell-based, human
Procedure: as §4

[2] = as above; assay type: cell-based, human; conditions: human; THP-1 cells, 72 h, ATP levels
Procedure: as §4

POP = biological target: T3, POP (Homo sapiens, UniProt P48147); assay: Prolyloligopeptidase (POP) inhibition assay, fluorogenic kit; assay type: biochemical; conditions: substrate DPP (Ala-Pro-AMC dipeptide), nid = no inhibition detected at 1 mM
T3 construct: purchased BPS Bioscience Inc
T3 sequence (P48147 1-710): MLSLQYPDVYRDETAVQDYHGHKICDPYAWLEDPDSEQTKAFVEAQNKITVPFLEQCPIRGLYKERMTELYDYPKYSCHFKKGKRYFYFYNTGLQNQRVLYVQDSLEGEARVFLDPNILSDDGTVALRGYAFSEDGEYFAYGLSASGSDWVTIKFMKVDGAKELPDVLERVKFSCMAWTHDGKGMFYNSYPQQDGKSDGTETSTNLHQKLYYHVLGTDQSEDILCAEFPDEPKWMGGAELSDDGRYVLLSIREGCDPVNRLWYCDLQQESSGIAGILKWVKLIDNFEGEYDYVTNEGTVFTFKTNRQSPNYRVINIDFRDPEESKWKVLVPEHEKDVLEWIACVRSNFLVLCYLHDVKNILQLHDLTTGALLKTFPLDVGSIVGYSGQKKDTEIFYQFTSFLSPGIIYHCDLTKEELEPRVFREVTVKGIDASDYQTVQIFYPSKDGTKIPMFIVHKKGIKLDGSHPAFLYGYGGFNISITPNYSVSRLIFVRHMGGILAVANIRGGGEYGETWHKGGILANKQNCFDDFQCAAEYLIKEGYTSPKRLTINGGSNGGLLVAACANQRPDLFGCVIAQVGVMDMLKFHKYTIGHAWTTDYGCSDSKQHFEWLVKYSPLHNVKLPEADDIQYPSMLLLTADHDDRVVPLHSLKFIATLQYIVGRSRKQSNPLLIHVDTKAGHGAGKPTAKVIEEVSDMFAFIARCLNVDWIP
Procedure: POP enzyme activity was measured using the Fluorogenic POP Assay Kit (BPS Bioscience Inc., San Diego, CA, USA). The reaction was carried out in a final volume of 50 μL in a low-binding NUNC microtiter plate. All compounds were tested at a final concentration of 250 μM in duplicate. A DPP substrate was added to a final concentration of 2.5 μM and the POP enzyme solution was subsequently added to a final concentration of 1 ng/μL. Optical densities at 440 nm were recorded using a microplate reader (Synergy H1, Biotek, QC, Canada).

[3] = 100 µM, killing a majority of the cells
[4] = 200 µM, killing a majority of the cells
[5] = tested concentrations (lycorine: below 50 µM)

T1 sequence (P81908 whole entry): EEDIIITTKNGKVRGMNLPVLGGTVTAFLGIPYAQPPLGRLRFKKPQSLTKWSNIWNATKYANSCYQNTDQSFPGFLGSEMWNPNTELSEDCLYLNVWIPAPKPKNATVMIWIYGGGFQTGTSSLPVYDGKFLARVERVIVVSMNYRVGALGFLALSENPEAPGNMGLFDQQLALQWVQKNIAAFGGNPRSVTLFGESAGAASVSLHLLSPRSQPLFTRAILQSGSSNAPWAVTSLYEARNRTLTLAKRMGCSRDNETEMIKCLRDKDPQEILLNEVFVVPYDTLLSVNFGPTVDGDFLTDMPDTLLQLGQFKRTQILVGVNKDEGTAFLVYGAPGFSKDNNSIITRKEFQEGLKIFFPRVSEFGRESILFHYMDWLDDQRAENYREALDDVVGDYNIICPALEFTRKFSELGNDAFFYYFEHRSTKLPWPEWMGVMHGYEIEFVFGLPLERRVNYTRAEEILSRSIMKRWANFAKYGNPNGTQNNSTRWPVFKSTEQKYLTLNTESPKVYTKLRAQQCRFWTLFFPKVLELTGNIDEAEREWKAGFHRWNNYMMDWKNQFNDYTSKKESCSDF

| SMILES | IC50 BuChE (BuChE; substrate ATCh) | IC50 BuChE (BuChE; substrate BuTCh) | EC50 (DENVGFP) [µM] | EC50 (HIV-1GFP) [µM] | inhibition at 200 µM (HIV-1GFP) [%] | CC50 at 72 h [1] [µM] | cell death, Huh7 cells (Huh7 cells) [%] | IC50 AChE (AChE) | cytotoxicity to THP-1 cells (THP-1 cells; [3]) | CC50 at 72 h [2] [µM] | loss of BuChE inhibition compared with norbelladine (BuChE) [fold] | IC50 (BuChE; substrate ATCh) [µM] | IC50 (BuChE; substrate BuTCh) [µM] | IC50 (AChE) [µM] | IC50 (POP; IC50 POP) [µM] | cytotoxicity to THP-1 cells (THP-1 cells; [4]) | cytotoxicity to Huh7 cells (Huh7 cells) | cytotoxicity to THP-1 cells (THP-1 cells; [5]) | IC50 (POP; read-out: IC50 POP) [µM] | inhibition at 2000 µM (BuChE; read-out: BuChE inhibition (positive control)) [%] |
| --- | --- | --- | --- | --- | --- | --- | --- | --- | --- | --- | --- | --- | --- | --- | --- | --- | --- | --- | --- | --- |
| O=Cc1ccc(O)c(O)c1 [3,4-DHBA, 3,4-dihydroxybenzaldehyde] | nid | nid | 24.1 | 51.5 | 94 to 99 | 173 | 50 | nid | highly cytotoxic | 31.7 | – | – | – | – | – | – | – | – | – | – |
| COc1ccc(CNCCc2ccc(O)cc2)cc1OC [3′,4′-O-dimethylnorbelladine] | – | – | 27.5 | 98.3 | – | 131 | 50 | – | – | > 200 | 3 | 87.8 | 87.9 | 320 | – | – | – | – | – | – |
| COc1ccc(/C=N/CCc2ccc(O)cc2)cc1OC [3′,4′-O-dimethylnorcraugsodine] | nid | nid | > 200 | > 200 | – | > 200 | – | nid | – | > 200 | – | – | – | – | – | – | – | – | – | – |
| COc1cc(CNCCc2ccc(O)cc2)ccc1O [3′-O-methylnorbelladine] | – | – | 44.9 | 135 | – | > 200 | – | nid | – | 99 | – | 40.2 | 58.9 | – | 1230 | highly cytotoxic | – | – | – | – |
| COc1cc(/C=N/CCc2ccc(O)cc2)ccc1O [3′-O-methylnorcraugsodine] | nid | nid | 176 | 107 | 94 to 99 | > 200 | – | nid | – | > 200 | – | – | – | – | 1150 | – | weakly cytotoxic | – | – | – |
| COc1ccc(CNCCc2ccc(O)cc2)cc1O [4′-O-methylnorbelladine] | – | – | 40.5 | 108 | – | > 200 | – | nid | – | > 200 | – | 42.9 | 91.6 | – | – | – | – | – | – | – |
| COc1ccc(/C=N/CCc2ccc(O)cc2)cc1O [4′-O-methylnorcraugsodine] | nid | nid | > 200 | > 200 | – | > 200 | – | nid | – | > 200 | – | – | – | – | – | – | – | – | – | – |
| O[C@H]1[C@H]2c3cc4c(cc3CN3CCC(=C[C@@H]1O)[C@H]23)OCO4 [Lycorine, reference compound] | – | – | 0.09 | – | – | 17.4 | – | – | – | 10.7 | – | – | – | – | – | – | cytotoxic | cytotoxic | – | – |
| Oc1ccc(CCNCc2ccc(O)c(O)c2)cc1 [Norbelladine] | – | – | 50.4 | 50.5 | 94 to 99 | 72.6 | 50 | nid | – | 82.2 | – | 33.3 | 26.1 | – | – | highly cytotoxic | – | – | – | – |
| Oc1ccc(CC/N=C/c2ccc(O)c(O)c2)cc1 [Norcraugsodine] | nid | nid | 37.7 | 55.5 | 94 to 99 | 122 | 50 | nid | highly cytotoxic | 27 | – | – | – | – | – | – | – | – | 567 | – |
| Cc1nnc(C(=O)NC(C)(C)c2nc(C(=O)NCc3ccc(F)cc3)c(O)c(=O)n2C)o1 [Raltegravir, reference compound] | – | – | – | 0.098 | – | – | – | – | – | > 10 | – | – | – | – | – | – | – | – | – | – |
| NCCc1ccc(O)cc1 [Tyramine] | nid | nid | > 200 | > 200 | – | > 200 | – | nid | – | > 200 | – | – | – | – | – | – | not cytotoxic | not cytotoxic | – | – |
| CCN(C)C(=O)Oc1cccc([C@H](C)N(C)C)c1 [rivastigamine, Rivastigmine, reference compound] | – | – | – | – | – | – | – | – | – | – | – | – | – | – | – | – | – | – | – | 100 |
